From paper PMC8301156, “Phenolic Extracts from Extra Virgin Olive Oils Inhibit Dipeptidyl Peptidase IV Activity: In Vitro, Cellular, and In Silico Molecular Modeling Investigations” (Antioxidants, 2021)

Tests used:
DPP-IV = conditions: cited from earlier work; for IC50: read-out: IC50, in vitro DPP-IV activity
[1] = target: T1, purified human recombinant DPP-IV enzyme (Homo sapiens, UniProt P27487); test: In vitro DPP-IV activity assay (Gly-Pro-AMC fluorescence); type: biochemical; conditions: tested 1–1000 µM
T1 construct: purchased Cayman Chemicals
T1 sequence (P27487 whole entry): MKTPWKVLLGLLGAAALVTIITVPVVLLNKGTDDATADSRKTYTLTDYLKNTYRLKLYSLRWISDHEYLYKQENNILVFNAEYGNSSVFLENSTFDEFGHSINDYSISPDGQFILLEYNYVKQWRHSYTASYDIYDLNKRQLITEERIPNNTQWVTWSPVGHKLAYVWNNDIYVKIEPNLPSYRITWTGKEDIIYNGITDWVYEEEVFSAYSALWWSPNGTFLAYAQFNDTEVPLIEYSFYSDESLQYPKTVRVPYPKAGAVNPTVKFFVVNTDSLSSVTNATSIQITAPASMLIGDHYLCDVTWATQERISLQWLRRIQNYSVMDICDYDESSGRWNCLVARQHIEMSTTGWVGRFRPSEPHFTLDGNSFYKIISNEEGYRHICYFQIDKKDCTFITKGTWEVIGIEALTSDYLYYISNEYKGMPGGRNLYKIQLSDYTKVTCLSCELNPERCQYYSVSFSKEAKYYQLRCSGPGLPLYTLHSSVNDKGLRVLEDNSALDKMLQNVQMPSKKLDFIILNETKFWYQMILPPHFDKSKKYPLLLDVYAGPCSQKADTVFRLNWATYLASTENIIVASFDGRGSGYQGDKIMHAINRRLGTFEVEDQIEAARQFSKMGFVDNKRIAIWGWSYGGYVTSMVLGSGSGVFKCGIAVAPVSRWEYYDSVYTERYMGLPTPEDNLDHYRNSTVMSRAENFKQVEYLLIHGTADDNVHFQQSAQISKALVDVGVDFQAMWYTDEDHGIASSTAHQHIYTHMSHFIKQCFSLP
Procedure: The DPP-IV enzyme was provided by Cayman Chemicals (Ann Arbor, MI, USA), while the DPP-IV substrate (Gly-Pro-amido-4-methylcoumarin hydrobromide (Gly-Pro-AMC)) was from AnaSpec Inc. (Freemont, CA, USA). The experiments were carried out in triplicate in a half-volume 96-well solid plate (white) following conditions previously optimized. More details are available in the Supplementary Material.
To evaluate the DPP-IV inhibitory activity of both BUO and OMN, in vitro experiments were performed by using the purified human recombinant DPP-IV enzyme and H-Gly-Pro-AMC as a substrate. The reaction was monitored by measuring the fluorescence signals at 465 nm after excitation at 350 nm, deriving from the release of a free AMC group after the cleavage of H-Gly-Pro-AMC catalyzed by DPP-IV. […]
Tris-HCl, ethylendiaminetetraacetic acid (EDTA) and NaCl were from Sigma-Aldrich (St. Louis, MO, USA) The DPP-IV assay kit was from (Cayman Chemicals (Michigan, USA), while Gly- Pro-amido-4-methylcoumarin hydrobromide (Gly- Pro-AMC) was from AnaSpec (Freemont, CA, USA). […]
MA, USA). Tyrosol (≥98%), hydroxytyrosol (≥98%), and oleocanthal (≥95%) were from Merck Life Science S.r.l. (Milano, Italy); oleuropein (≥98%) was from Extrasynthese (Genay, France), whereas oleacin was from Phytolab
(Vestenbergsgreuth, Germany).
2.3. In Vitro DPP-IV Activity Assay
The DPP-IV enzyme was provided by Cayman Chemicals (Michigan, USA), while the DPP-IV substrate (H-Gly-Pro-AMC) was from AnaSpec Inc.
(Freemont, CA, USA). The experiments were carried out in triplicate in a half volume 96-well solid plate (white). […]
Subsequently, the samples were mixed and 50 μL of each reaction was transferred in each plate well. […] Fluorescence signals deriving from the release of free AMC were measured using a Synergy H1 fluorescence plate reader from BioTek (excitation/emission wavelength

| SMILES | activity against DPP-IV (in words) (DPP-IV) | further results |
| --- | --- | --- |
| O=c1cc(-c2ccc(O)cc2)oc2cc(O)cc(O)c12 [apigenin] | – | mode of DPP-IV inhibition (DPP-IV): noncompetitive |
| O.Oc1cc(O)c2c(c1)O[C@H](c1ccc(O)c(O)c1)[C@@H](O)C2 [catechin] | totally inactive | – |
| O=C(/C=C/c1ccc(O)c(O)c1)O[C@@H]1C[C@](O)(C(=O)O)C[C@@H](O)[C@H]1O [chlorogenic acid] | totally inactive | – |
| COc1cc(/C=C/C(=O)CC(=O)/C=C/c2ccc(O)c(OC)c2)ccc1O [curcumin] | more active than resveratrol | mode of DPP-IV inhibition (DPP-IV): competitive |
| Oc1cc(O)c2c(c1)O[C@H](c1ccc(O)c(O)c1)[C@H](O)C2 [epicatechin] | totally inactive | – |
| C[C@@H]1O[C@@H](OC[C@H]2O[C@@H](Oc3cc(O)c4c(c3)O[C@H](c3ccc(O)c(O)c3)CC4=O)[C@H](O)[C@@H](O)[C@@H]2O)[C@H](O)[C@H](O)[C@H]1O [eriocitrin] | – | IC50 (DPP-IV): 10.36 ± 0.09 µM |
| O=c1c(-c2ccc(O)cc2)coc2cc(O[C@@H]3O[C@H](CO)[C@@H](O)[C@H](O)[C@H]3O)cc(O)c12 [genistin] | totally inactive | – |
| COc1ccc([C@@H]2CC(=O)c3c(O)cc(O[C@@H]4O[C@H](CO[C@@H]5O[C@@H](C)[C@H](O)[C@@H](O)[C@H]5O)[C@@H](O)[C@H](O)[C@H]4O)cc3O2)cc1O [hesperidin] | totally inactive | – |
| OCCc1ccc(O)c(O)c1 [hydroxytyrosol] | – | IC50 [1]: 742 ± 35.7 µM |
| CC1(C)O[C@H]2CC(=O)OC[C@]23[C@H]2CC[C@@]4(C)[C@H](c5ccoc5)OC(=O)[C@H]5O[C@]54[C@]2(C)C(=O)C[C@@H]13 [limonin] | totally inactive | – |
| O=c1cc(-c2ccc(O)c(O)c2)oc2cc(O)cc(O)c12 [luteolin] | – | mode of DPP-IV inhibition (DPP-IV): noncompetitive |
| C[C@@H]1O[C@@H](O[C@H]2[C@H](Oc3cc(O)c4c(c3)O[C@H](c3ccc(O)cc3)CC4=O)O[C@H](CO)[C@@H](O)[C@@H]2O)[C@H](O)[C@H](O)[C@H]1O [naringin] | totally inactive | – |
| C[C@@H]1O[C@@H](OC[C@H]2O[C@@H](Oc3cc(O)c4c(c3)O[C@H](c3ccc(O)cc3)CC4=O)[C@H](O)[C@@H](O)[C@@H]2O)[C@H](O)[C@H](O)[C@H]1O [narirutin] | totally inactive | – |
| COc1ccc([C@@H]2CC(=O)c3c(O)cc(O[C@@H]4O[C@H](CO)[C@@H](O)[C@H](O)[C@H]4O[C@@H]4O[C@@H](C)[C@H](O)[C@@H](O)[C@H]4O)cc3O2)cc1O [neohesperidin] | totally inactive | – |
| C/C=C1/[C@H](O[C@@H]2O[C@H](CO)[C@@H](O)[C@H](O)[C@H]2O)OC=C(C(=O)OC)[C@H]1CC(=O)OCCc1ccc(O)c(O)c1 [oleuropein] | – | IC50 [1]: 472 ± 21.7 µM |
| O=C(O)c1ccc(O)c(O)c1 [protocatechuic acid] | totally inactive | – |
| Oc1ccc(/C=C/c2cc(O)cc(O)c2)cc1 [resveratrol] | – | mode of DPP-IV inhibition (DPP-IV): competitive; IC50 (DPP-IV): 0.0006 ± 0.0004 µM |
| C[C@@H]1O[C@@H](OC[C@H]2O[C@@H](Oc3c(-c4ccc(O)c(O)c4)oc4cc(O)cc(O)c4c3=O)[C@H](O)[C@@H](O)[C@@H]2O)[C@H](O)[C@H](O)[C@H]1O [rutin] | totally inactive | – |
| OCCc1ccc(O)cc1 [tyrosol] | – | IC50 [1]: 1110 ± 55.6 µM |
